# Molecular target: hepatocyte growth factor receptor (MET), exon 14 skipped (Homo sapiens, UniProt P08581, DEL963-1009)
# Test: PROTAC degradation of METex14Δ-GFP by live cell imaging in HEK293
# Format: cell-based
compound,measurement,value
COc1cc2c(Oc3ccc(NC(=O)C4(C(=O)Nc5ccc(F)cc5)CC4)cc3F)ccnc2cc1OCCCOCCCOCCC(=O)N[C@H](C(=O)N1C[C@H](O)C[C@H]1C(=O)NCc1ccc(-c2scnc2C)cc1)C(C)(C)C,DC50,2.61 ± 0.115 µM

# Reference: PMC11967169 (RSC Advances, 2025)
